Experimental data from patent US20140343017A1, “PYRROLE COMPOUND” (Kabushiki Kaisha Yakult Honsha, priority 2012, published 2014).

Tests used:
Experiment in all cases: Inhibitory effect on growth of human cancer cells (in vitro), WST-8
Assay type in all cases: cell-based
[1] = test system: human non-small cell lung cancer A549 cells; details: Homo sapiens, A549, 96 h, 96 hours culture
Experimental: (§1) Each pyrrole compound of the present invention was studied for its effects on the growth of human non-small cell lung cancer A549 cells and human colorectal cancer HT-29 cells and HCT116 cells. The cells of each line were suspended in an RPMI1640 medium supplemented with 10% fetal bovine serum and inoculated at a cell density of 1000 cells/50 μL/well to a 96-well plate. After overnight culture, each compound diluted with a medium was added thereto at a concentration of 50 μL/well, and the cells were further cultured for 96 hours. After the completion of culture, WST-8 (Seikagaku Corp.) was added thereto at a concentration of 10 μL/well, and the cells were cultured at 37° C. for approximately 1 hour under 5% CO2 conditions, followed by measurement of absorbance at 450 nm.

[2] = test system: human colorectal cancer HT-29 cells; details: Homo sapiens, HT-29, 96 h, 96 hours culture, read-out: IC50 (nM) HT29
Experimental: as §1

[3] = test system: human colorectal cancer HCT116 cells; details: Homo sapiens, HCT-116, 96 h, 96 hours culture
Experimental: as §1

Row | IC50 [1] [nM] | IC50 [2] [nM] | IC50 [3] [nM] | Structure (SMILES)
1 | 87.8 | 43.3 | 182 | Cc1[nH]c(-c2nnn(CCN)n2)c(C)c1C(=O)c1cccc(Br)c1 [Compound 103, (5-(2-(2-aminoethyl)-2H-tetrazol-5-yl)-2,4-dimethyl-1H-pyrrol-3-yl)(3-bromophenyl)methanone]
2 | 11 | 8.5 | 8.5 | CC(=O)OCCn1nnc(-c2[nH]c(C)c(C(=O)c3cccc(Br)c3)c2C)n1 [Compound 104, 2-(5-(4-(3-bromobenzoyl)-3,5-dimethyl-1H-pyrrol-2-yl)-2H-tetrazol-2-yl)ethyl acetate]
3 | 49.2 | 42.5 | 41 | Cc1[nH]c(-c2nnn(CCO)n2)c(C)c1C(=O)c1cccc(C2CC2)c1 [Compound 115, (3-cyclopropylphenyl)(5-(2-(2-hydroxyethyl)-2H-tetrazol-5-yl)-2,4-dimethyl-1H-pyrrol-3-yl)methanone]
4 | 83 | 42.1 | 118 | Cc1c(-c2nnn(CCO)n2)[nH]c(C=O)c1C(=O)c1cccc(Br)c1 [Compound 117, 3-(3-bromobenzoyl)-5-(2-(2-hydroxyethyl)-2H-tetrazol-5-yl)-4-methyl-1H-pyrrole-2-carboaldehyde]
5 | 50.1 | 42.6 | 145 | Cc1c(-c2nnn(CCO)n2)[nH]c(C(F)F)c1C(=O)c1cccc(Br)c1 [Compound 119, (3-bromophenyl)(2-(difluoromethyl)-5-(2-(2-hydroxyethyl)-2H-tetrazol-5-yl)-4-methyl-1H-pyrrol-3-yl)methanone]
6 | 38.6 | 30.4 | 37.8 | COc1ccc(C(=O)c2c(C=O)[nH]c(-c3nnn(CCOC(C)=O)n3)c2C)cc1Br [Compound 124, 2-(5-(4-(3-bromo-4-methoxybenzoyl)-5-formyl-3-methyl-1H-pyrrol-2-yl)-2H-tetrazol-2-yl)ethyl acetate]
7 | 45.8 | 35.2 | 93.2 | COc1ccc(C(=O)c2c(C=O)[nH]c(-c3nnn(CCO)n3)c2C)cc1Br [Compound 125, 3-(3-bromo-4-methoxybenzoyl)-5-(2-(2-hydroxyethyl)-2H-tetrazol-5-yl)-4-methyl-1H-pyrrole-2-carboaldehyde]
8 | 38.2 | 33.1 | 38.2 | COc1ccc(C(=O)c2c(C(F)F)[nH]c(-c3nnn(CCOC(C)=O)n3)c2C)cc1Br [Compound 126, 2-(5-(4-(3-bromo-4-methoxybenzoyl)-5-(difluoromethyl)-3-methyl-1H-pyrrol-2-yl)-2H-tetrazol-2-yl)ethyl acetate]
9 | 44.7 | 36.9 | 40.4 | COc1ccc(C(=O)c2c(C(F)F)[nH]c(-c3nnn(CCO)n3)c2C)cc1Br [Compound 127, (3-bromo-4-methoxyphenyl)(2-(difluoromethyl)-5-(2-(2-hydroxyethyl)-2H-tetrazol-5-yl)-4-methyl-1H-pyrrol-3-yl)methanone]
10 | 27.8 | 27.4 | 22.4 | COc1ccc(C(=O)c2c(CO)[nH]c(-c3nnn(CCOC(C)=O)n3)c2C)cc1Br [Compound 128, 2-(5-(4-(3-bromo-4-methoxybenzoyl)-5-(hydroxymethyl)-3-methyl-1H-pyrrol-2-yl)-2H-tetrazol-2-yl)ethyl acetate]
11 | 46.9 | 34.2 | 41.2 | COc1ccc(C(=O)c2c(CO)[nH]c(-c3nnn(CCO)n3)c2C)cc1Br [Compound 129, (3-bromo-4-methoxyphenyl)(5-(2-(2-hydroxyethyl)-2H-tetrazol-5-yl)-2-(hydroxymethyl)-4-methyl-1H-pyrrol-3-yl)methanone]
12 | 35.5 | 30.7 | 36.9 | COc1ccc(C(=O)c2c(C(C)O)[nH]c(-c3nnn(CCOC(C)=O)n3)c2C)cc1Br (stereo not drawn) [Compound 130, 2-(5-(4-(3-bromo-4-methoxybenzoyl)-5-(1-hydroxyethyl)-3-methyl-1H-pyrrol-2-yl)-2H-tetrazol-2-yl)ethyl acetate]
